Results on four compounds are retold here after ChEMBL document CHEMBL1147463, “Synthesis and anticancer activity of side chain analogs of the crambescidin alkaloids” (2004).

Holding throughout (assay type): functional
A short description of assay [1]: Murine tumor cell selectivity was measured as zone unit differential between ([…]) murine cell line and (CFU) normal bone marrow in disk diffusion soft agar colony formation assay at a concentration of 19 ug/disk.
Assay [2] in a line: Human tumor selectivity was measured as zone unit differential between (H125) lung small cell carcinoma and (CEM) lymphocytic leukemia in disk diffusion soft agar colony formation assay at a concentration of 19 ug/disk.
Assay [3] can be described thus: Human tumor selectivity was measured as zone unit differential between (H116) colon tumor and (CEM) lymphocytic leukemia in disk diffusion soft agar colony formation assay at a concentration of 19 ug/disk.
Assay [4] in a line: Murine tumor cell selectivity was measured as zone unit differential between (C38) colon adenocarcinoma and ([…]) murine cell line in disk diffusion soft agar colony formation assay at a concentration of 19 ug/disk.
The nature of assay [5]: Murine tumor cell selectivity was measured as zone unit differential between (C38) colon adenocarcinoma and (CFU) normal bone marrow in disk diffusion soft agar colony formation assay at a concentration of 19 ug/disk.
Assay [6] can be described thus: Murine tumor cell selectivity was measured as zone unit differential between (C38) colon adenocarcinoma and (CFU) normal bone marrow in disk diffusion soft agar colony formation assay at a concentration of 1 ug/disk.
Assay [7] can be described thus: Human tumor selectivity was measured as zone unit differential between (H125) lung small cell carcinoma and (CEM) lymphocytic leukemia in disk diffusion soft agar colony formation assay at a concentration of 1 ug/disk.
Assay [8] in a line: Human tumor selectivity was measured as zone unit differential between (H116) colon tumor and (CEM) lymphocytic leukemia in disk diffusion soft agar colony formation assay at a concentration of 1 ug/disk.
Assay [9] in a line: Murine tumor cell selectivity was measured as zone unit differential between (C38) colon adenocarcinoma and ([…]) murine cell line in disk diffusion soft agar colony formation assay at a concentration of 1 ug/disk.
A short description of assay [10]: Murine tumor cell selectivity was measured as zone unit differential between ([…]) murine cell line and (CFU) normal bone marrow in disk diffusion soft agar colony formation assay at a concentration of 1 ug/disk.

Regarding `CC[C@H]1C=CCC[C@@]2(C[C@@H]3CC[C@@H]4C[C@]5(CCC[C@@H](C)O5)NC(=[N+]43)N2)O1.[Cl-]`, the Selectivity in assay [1] is 350; in assay [2], 150; in assay [3], 0; in [4], -350; in assay [5], 0.
`CC[C@H]1C=CCC[C@@]2(C[C@@H]3CC[C@@H]4[C@H](C(=O)O)[C@]5(CCC[C@@H](C)O5)NC(=[N+]34)N2)O1.[Cl-]`: the Selectivity in assay [1] was 200; in [2], 100; in assay [3] it was 50; in [4], -250; in [5], -50.
As to `CC[C@H]1C=CCC[C@@]2(C[C@@H]3CC[C@@H]4[C@H](C(=O)OC/C=C/c5ccccc5)[C@]5(CCC[C@@H](C)O5)NC(=[N+]34)N2)O1.[Cl-]`, the Selectivity in assay [1] is -50; in assay [2] it was 200; in [3], 200; in [4], 150; in [5], 100.
Regarding `C=CCOC(=O)[C@H]1[C@H]2CC[C@H]3C[C@@]4(CCC=C[C@H](CC)O4)NC(=[N+]32)N[C@@]12CCC[C@@H](C)O2.[Cl-]`, the Selectivity was found to be 450 in [6]; 0 in [7]; 0 in [8]; 350 in assay [9]; 100 in assay [10].
